Measured values: patent US9737493B2, “Compositions and methods for modulating DNMT1 inhibitor activity” (University of Louisville Research Foundation, Inc., priority 2012, dated 2017)

Legend:
A549 cells [1] = experiment: Flow cytometric detection of γ-H2AX; type: cell-based, human; details: A549, 2 μM, 24 h
Method: (§1) FIG. 11: XB05 Induces DNA Damage in Malignant Cells. (A) Alkaline comet assays for detection of DNA damage for cells treated as indicated for 72 h. TBHP was a positive control for oxidative DNA damage. Decreased DNA fluorescence in nucleoid comet heads (arrows) and increased smearing of DNA into comet tails (asterisks) is indicated. Scale bar, 400 μm. Data shown are representative of at least two individual experiments for each cell line. (B) Western blot analysis for γ-H2AX and GAPDH (loading control) in whole cell extracts from cells treated with vehicle, UV irradiation (800 μJ, positive control for DSBs), or XB05 (1 μM for U937, 2 μM for A549) after 24 h. Images shown are representative of three individual experiments in each cell line. (C) Flow cytometric detection of γ-H2AX in cells treated as described in part B. Bar graph represents mean+/−SEM for 3 individual experiments in each cell line. Statistical comparison indicated significant differences between vehicle and XB05-treated groups in both cell lines (*p≦0.05).
(§2) Flow Cytometric Assays. Analyses were performed using a FACScalibur flow cytometer (BD Biosciences, Mountain View, Calif.) and FlowJo software (Tree Star, Inc., Ashland, Oreg.). […] Cells were then washed twice with PBS, re-suspended at a density of 1×10^6 cells/mL in PBS and analyzed by flow cytometry.

U937 cells [2] = experiment: Flow cytometric detection of γ-H2AX; type: cell-based, human; details: U937, 1 μM, 24 h
Method: as §1, §2

A549 cells [3] = experiment: Trypan blue exclusion assay; type: cell-based, human; details: A549, 2 μM, 72 h
Method: (§3) FIG. 3: XB05 Induces Apoptotic and Nonapoptotic Cell Death in Malignant Cell Lines. (A) Trypan blue exclusion assay for three human cell lines following treatment with XB05 for 72 h at the concentrations indicated. Data points represent the mean+/−SEM for three independent experiments. (B) Representative phase contrast microscopy images of cells treated with vehicle (72 h), XB05 (72 h with 1 μM for U937 and Hs27, or 2 μM for A549), or 6 μg/mL camptothecin (U937 for 6 h, A549 and Hs27 for 48 h). Cells undergoing apoptotic (black arrows) or non-apoptotic (white arrows) cell death are indicated. (C) Whole cell extracts from cells treated with vehicle, camptothecin, or XB05, as described in part B were western blotted for biochemical markers of apoptosis and GAPDH (loading control). Apoptosis is indicated by cleavage of full-length PARP-1 (116 kDa) to an 89 kDa fragment, and by appearance of bands (17 kDa, 19 kDa) recognized by an antibody specific to cleaved (activated) forms of caspase-3. (D) Flow cytometric analysis of annexin V-FITC/propidium Iodide (PI) staining for malignant cells treated with vehicle, camptothecin or XB05 as described in part B, in the presence or absence of the pan-caspase inhibitor Z-VAD-fmk (100 μM).
(§4) After 72 h, cells were trypsinized (in the case of adherent cells), stained with trypan blue solution (0.4%) (BioRad, Hercules Calif.) and cell number and percent viability determined on a TC10 automated cell counter (BioRad) using triplicate measurements for each sample. Phase contrast microscopy images were obtained on an EVOSfI digital inverted microscope (Advanced Microscopy Group, Bothell, Wash.).

U937 cells [4] = experiment: Trypan blue exclusion assay; type: cell-based, human; details: U937, 1 μM, 72 h
Method: as §3, §4

Hs27 cells = experiment: Trypan blue exclusion assay; type: cell-based, human; details: Hs27, 72 h
Method: as §3, §4

MDA-MB-231 cells = experiment: MTT cell proliferation assay; type: cell-based; details: Homo sapiens, MDA-MB-231, 72 h
Method: Cell Proliferation Assays. The antiproliferative activity of XB05 was tested using a previously published 3-(4,5-dimethylthiazol-2-yl)-2,5-diphenyltetrazolium bromide (MTT) assay protocol (Girvan et al., “AGRO100 inhibits activation of nuclear factor-kappaB (NF-kappaB) by forming a complex with NF-kappaB essential modulator (NEMO) and nucleolin” Molecular Cancer Therapeutics (2006) Vol. 5, No. 7, pp. 1790-1799). Briefly, cells were seeded in quadruplicate wells in 96-well plates and allowed to adhere overnight. […] Plates were incubated with XB05 for 72 h, during which the cell culture medium was not changed. Cell viability was determined and the background corresponding to medium alone (no cells) was subtracted. Data were analyzed as described in the Brief Description of the Drawings.
XB05 has Cancer-Selective Antiproliferative Activity. XB05 was tested to determine its antiproliferative activity in a variety of human cell lines that are derived from malignant tissues or from non-malignant (immortalized but not transformed) cells and listed in FIG. 1B. As described in Materials and Methods, cells were treated with varying concentrations of XB05 for 72 h and evaluated using the MTT cell proliferation assay.

A549 cells [5] = experiment: DNA content (PI) cell cycle analysis; type: cell-based, human
Method: (§5) FIG. 6: DNA Content Analysis for Malignant Cells treated with XB05. (A) U937 and A549 cells were treated with XB05 at the concentrations indicated for 24, 48 and 72 h. At each time point, the cells were harvested and subjected to propidium iodide (PI) staining for DNA content analysis as described in Methods. (B) Tables showing percentage of cycling cells (non-SubG1) in various phases of the cell cycle after treatment with vehicle or XB05 as indicated in FIG. 6A.
(§6) Flow Cytometric Assays. Analyses were performed using a FACScalibur flow cytometer (BD Biosciences, Mountain View, Calif.) and FlowJo software (Tree Star, Inc., Ashland, Oreg.). Cells were treated as indicated in the figures and in the Brief Description of the Drawings. Cells were harvested by using TrypLE Cell Dissociation Reagent (Life Technologies). For cell death analyses, cells (adherent and detached cells) were stained with annexin-V-FITC and propidium iodide (PI) using the Apoptosis Detection Kit (BD Biosciences, San Jose, Calif.), according to the manufacturer's instructions. For cell-cycle distribution, cells were fixed, and stained with PI using the Cycle Test Plus kit (Becton Dickinson, Franklin Lakes, N.J.). […] Cells were then washed twice with PBS, re-suspended at a density of 1×10^6 cells/mL in PBS and analyzed by flow cytometry.

U937 cells [6] = experiment: DNA content (PI) cell cycle analysis; type: cell-based, human; details: U937, 24 h
Method: as §5, §6

What does the source list for `CCCCCC(O)C#CC(F)(F)Br` (centres unmarked) [XB05]?
increase in γ-H2AX staining compared to vehicle-treated controls (A549 cells [1]): 2.9 fold; increase in γ-H2AX staining compared to vehicle-treated controls (U937 cells [2]): 4.5 fold; cell death (trypan blue exclusion) (A549 cells [3]): modest cell death; cell death (trypan blue exclusion) (U937 cells [4]): robust cell death; cell death (trypan blue exclusion) (Hs27 cells): lowest levels of cell death; GI50 (MDA-MB-231 cells): < 500 nM; proportion of cells in G2/M phase (A549 cells [5]): very modest increase in the G2/M fraction; proportion of cells in G2/M phase (U937 cells [6]): pronounced increase in the proportion of cells in G2/M phase
